Measured values published in PMC4280898, “Diazido Mixed-Amine Platinum(IV) Anticancer Complexes Activatable by Visible-Light Form Novel DNA Adducts” (Chemistry (Weinheim an Der Bergstrasse, Germany), 2013).
“And” between values parts separate entries of the source, which are not always exact repeats. Equal entries are not always repeated.

What was measured:
[1] = tested on: calf thymus DNA; assay: Binding to calf thymus DNA (differential pulse polarography); conditions: in the dark; ri=0.05, 10 mM NaClO4, 310 K
Experimental: Binding to calf thymus DNA: Samples of double-helical calf thymus DNA (32 μg mL^−1) were treated with the Pt complexes at the ri=0.05 (ri is defined as the molar ratio of free platinum complex to nucleotide phosphates at the onset of incubation with DNA) in NaClO4 (10 mM) and incubated at 310 K in the dark for complexes 5 or 6 (Figure 7 C and D). For complexes 1 or 2, samples were irradiated continuously with 420 nm light for 30 min and then further incubated in the dark for up to 24 h so that the activated forms of the complexes could bind DNA (Figure 7 A and B). The amount of Pt bound to DNA increased with time for all four complexes. […]
the UKS method with the unrestricted PBE1PBE functional was employed. […] Thirty-two singlet and eight triplet excited states with the corresponding oscillator strengths were determined with a Time-dependent Density Functional Theory (TDDFT)[15] calculation. […]
assayed by differential pulse polarography for free, unbound platinum.[16] The amount of platinum bound to DNA was calculated by subtracting the amount of free (unbound) platinum from the total amount of platinum present in the reaction. […]
This fragment contained T7 RNA polymerase promoter (in the upper strand close to its 3'-end). […] The fragments produced in RNA synthesis on the template modified by the platinum complexes were analysed by a 6% polyacrylamide/8M urea sequencing gel. […]

[2] = tested on: A2780 cells; assay: SRB proliferation assay for non-light-sensitive complexes, A2780; assay type: cell-based, human; conditions: ambient light, 24 h exposure, 72 h recovery
Experimental: Cytotoxicity of platinum(II) precursors: To investigate the relationship between the Pt^IV diazidodihydroxido complexes and their Pt^II dichlorido analogues trans-[PtCl2(Am1)(Am2)] (where Am=amine), the cytotoxicities of complexes trans-[PtCl2(MA)(Py)] (5) and trans-[PtCl2(MA)(Tz)] (6) towards A2780 and its cisplatin resistant sub-line A2780cis were determined. The toxicity was not photoinduced, as the complexes are not photoactive. Complexes 5 and 6 are highly cytotoxic towards A2780 and A2780cis cells compared to the reported trans-Pt^II compounds.[18]–[22] Complex 5 is about three-times more cytotoxic than complex 6 towards A2780 cells. […]
Cell Culture and Proliferation Assay for Non-light-sensitive Complexes
The A2780 ovarian cell line was obtained from the ECACC (European Collection of Animal Cell Culture, Salisbury, United Kingdom). The cells were maintained in RPMI 1640 media, which was supplemented with 10% foetal calf serum, 1% L-glutamine, and 1% penicillin/streptomycin. All cells were grown at 310 K in an humidified atmosphere containing 5% CO2. Stock solutions of the Pt complexes were freshly prepared in DMSO to assist dissolution and then diluted into saline and medium (maximum final concentration of DMSO 1% and saline 6%). After plating 5000 A2780 cells per well on day 1, Pt complexes were added to the cancer cells on day 3 at concentrations ranging from 0.01 to 100 µM, depending on the preliminary activity data obtained in screening assays. Cells were exposed to the complexes for 24 h, washed with PBS, supplied with fresh medium, and allowed to grow for three doubling times (72 h), and then the protein content (proportional to cell survival) was measured using the sulforhodamine B (SRB) assay.[7] The standard errors are based on two independent experiments of three replicates each.[8]

Structure (SMILES)	Pt bound after 24 h [1]	IC50 [2] [µM]
C[NH2+][Pt@SP3-2]([Cl])([Cl])[n+]1ccsc1 [Complex 6, trans-[PtCl2(MA)(Tz)]]	63(±5) % and 63±5%	6.9 ± 2.3
C[NH2+][Pt@SP3-2]([Cl])([Cl])[n+]1ccccc1 [Complex 5, trans-[PtCl2(MA)(Py)]]	80(±5) % and 80±5%	2.4 ± 0.7
